Measurements: patent US20210308196A1, “COMPOSITIONS AND METHODS TO PROMOTE HOST DEFENSE AND STIMULATE, EXPAND, AND/OR RESET T CELL REPERTOIRES” (EVOLVE BIOSYSTEMS, INC., priority 2018, published 2021)

Experiments:
[1] = Safety and tolerability of B. infantis EVC001 supplementation in healthy term nursing infants; type: in vivo, human; conditions: healthy term breastfed infants
Experimental: This trial was designed to show the effect of probiotic supplementation with Bifidobacterium longum subsp. Infantis (B. infantis EVC001) in healthy, term, nursing infants compared to an unsupplemented group. A dry composition of lactose and activated Bifidobacterium longum subsp. infantis was prepared starting with the cultivation of a purified isolate (Strain EVC001 ATCC Accession No. PTA-125180, Evolve Biosystems Inc., Davis, Calif., isolated from a human infant fecal sample) in the presence of BMO according to International Patent Application No. PCT/US2015/057226. […] This concentrated powder was then diluted by blending with infant formula grade lactose to an activity level of about 30 Billion CFU/g. This composition then was loaded into individual sachets at about 0.625 g/sachet and provided to breast-fed infants starting on or about day 7 of life and then provided on a daily basis for the subsequent 21 days.
This was a 60-day study starting with infants' date of birth as Day 1. […]
Infant fecal samples were collected throughout the 60-day trial. […] Safety and tolerability were determined from maternal reports of infants' feeding, stooling frequency, and consistency (using a modified Amsterdam infant stool scale—watery, soft, formed, hard; Bekkali et al. 2009), as well as GI symptoms and health outcomes. […]

peanut allergy = experiment: Prevention of human peanut allergy in infants; type: in vivo; conditions: high-level colonization vs control group with low-level colonization
Experimental: Infants 2-4 months of age at risk of allergy are recruited and their stool is screened for their Bifidobacterium infantis status (Bifidobacterium infantis abundance). The infants are divided into 2 groups: high Bifidobacterium (desirable infant gut microbiome) and low Bifidobacterium (dysbiotic infant gut microbiome). Low Bifidobacterium stool samples are determined to be low Bifidobacterium or dysbiotic, if their levels of Bifidobacterium are less than a threshold of 10^8 CFU/ug DNA and/or Bifidobacteriaceae family is less than 35% of the total infant gut microbiome as measured by a next generation sequencing, such as 16S RNA sequence. Conversely, a high Bifidobacterium sample or desirable infant gut microbiome has a threshold of 10^8 CFU/ug DNA or greater and/or Bifidobacteriaceae family is greater than 35% of the total infant gut microbiome. Once the infants are screened, the dysbiotic group is randomized into a placebo arm or a supplemented arm receiving activated B. infantis, LNnT and retinol. Infants are fed the supplement or placebo for 16 weeks. At 12 weeks, peanut extract is introduced to the diet for 3 days to infants who are at least 4 months old. Blood samples are taken at 12 weeks, 16 weeks, 20 weeks, 24 weeks, 36 weeks, 40 weeks to analyze TReg cells and IgE. At 9 months, the infants are brought in for a peanut challenge. The incident of allergy between groups is analyzed.

[2] = tested on: vaccine specific antibodies; experiment: Vaccine-specific antibodies in infant stool; type: in vivo, human
From the text: Infants from Example 1 received vaccines per the standard schedule. Standard schedule is expected to look like this, as per the CDC (other nations have slightly different schedules; however, the repeated doses over the first year of life is common).
Stool samples were collected at 10 and 12 months for vaccine quantification to coincide with an appropriate post-vaccine time point, and to allow the expansion of vaccine-specific antibodies concentrations to plateau after primary, secondary or tertiary doses [Wright et al. (2014) Journal of Infectious Diseases:209 pg 1628-1634; Brown et al. (2012) J Immunol Methods: 386(1-2): 117-12].
Evaluation of stool for antigen specific responses in infants colonized with B. infantis EVC001. Biophysical antibody profiling assays are performed to assess the Fv and Fc characteristics of vaccine-elicited antibodies raised in infants with and without B. infantis colonization. Presence and phenotype of antibodies in test samples are assessed by staining of bead-bound antibodies with PE-conjugated detection reagents (Anti-IgG, Anti-IgA, and potentially Anti-IgE) and detection via flow cytometry. For the assay, 100 μL each of prepared stool samples from 34 subjects (2 timepoints, up to 62 samples total) that received either received EVC001 or are part of the control group.

Q: For “Bifidobacterium longum subsp. infantis EVC001 [B. infantis EVC001]”, which “Adverse events versus unsupplemented group” value ([1]; 60-day study) is on record?
A: Its value is “not different between groups”.

Q: And the Tolerability ([1]; at least 1.8×10^10 cfu once daily for 21 days from Day 7)?
A: Its Tolerability is “well-tolerated”.

Q: And the “Inflammatory responses to the food antigen” value (peanut allergy)?
A: Its value is “reduces”.

Q: And the Vaccine response ([2]; infants persistently colonized for at least the first 100 days of life vs infants without colonization)?
A: The Vaccine response was “stronger vaccine response”.

Q: What about the “Vaccine specific antibodies in stool” value ([2]; stool collected at 10 and 12 months, treatment group) of the same substance?
A: The value was “significant elevation”.
